Test results: patent publication US10883936B2, “Analysis of viable and nonviable cells” (SageMedic Corporation, priority 2018, dated 2021)

Tests used:
[1] = tested on: ovarian cancer primary tumor cells; experiment: Confocal fluorescent microscopy of dyed primary tumor cells, dye combinations and addition sequences (Example 1); assay type: cell-based
Procedure: A 96 round bottom well plate was seeded with a single cell suspension of about 2,500 ovarian cancer primary tumor cells/20 μl/well at day 0. In each well, 80 μl of DMEM/2% alpha serum was added on top to the total volume of 100 μl/well. Dyes were prepared at 2-fold the desired final concentrations on the day of imaging. At day 3, 100 μL of dyeing mix was carefully added to each well to avoid disturbing the cells, to a final 1-fold concentration of dyes. Cells were incubated with dyes at 37° C. For this example, the dyes used were a membrane-permeable fluorescent dye (CYQUANT® GR, Thermo Fisher Scientific, Waltham, Mass.) and a membrane-impermeable fluorescent quenching dye (DRAQ7™, Thermo Fisher Scientific, Waltham, Mass.). The following dye combinations and sequences of dye addition were tested in triplicates, and similar results were seen among the triplicates. FIGS. 1A-1G show exemplary results of the dye combination and addition sequences, as follows.
FIG. 1A is a confocal fluorescent microscopy image of a sample prepared by incubation with the membrane-impermeable fluorescent quenching dye for 30 min followed by addition of the masking agent (Diammonium 5-[(E)-(4-acetamido-2-sulfonatophenyl)diazenyl]-6-amino-4-hydroxy-2-naphthalenesulfonate; CAS Reg. No. 302912-22-7, Thermo Fischer Scientific, Waltham, Mass.) and incubation for an additional 1 h.
FIG. 1B is a confocal fluorescent microscopy image of a sample prepared by incubation with the membrane-impermeable fluorescent quenching dye for 30 min.
FIG. 1C is a confocal fluorescent microscopy image of a sample prepared by incubation with the membrane-impermeable fluorescent quenching dye for 30 min, followed by addition of the membrane-permeable fluorescent dye and incubation for an additional 1 h.
FIG. 1D is a confocal fluorescent microscopy image of a sample prepared by incubation with the membrane-impermeable fluorescent quenching dye for 30 min, followed by addition of the membrane-permeable fluorescent dye and masking reagent and incubation for an additional 1 h.
FIG. 1E is a confocal fluorescent microscopy image of a sample prepared by incubation with the membrane-permeable fluorescent dye alone for 1 h.
FIG. 1F is a confocal fluorescent microscopy image of a sample prepared by incubation with the membrane-permeable fluorescent dye alone for 1 h, followed by addition of the membrane-impermeable fluorescent quenching dye and incubation for an additional 30 min.
FIG. 1G is a confocal fluorescent microscopy image of a sample prepared by incubation with the membrane-permeable fluorescent dye and masking reagent for 1 h, followed by addition of the membrane-impermeable fluorescent quenching dye and incubation for an additional 30 min.

[2] = tested on: ovarian cancer primary tumor cells; experiment: Dynamic confocal fluorescent microscopy after adding quenching dye to cells pre-dyed with membrane-permeable dye (Example 2); assay type: cell-based; conditions: for change of fluorescence intensity over time: 0-45 min after addition of quenching dye; for dyeing of the nonviable cells: by 45 min after addition of quenching dye
Procedure: In order to further examine the dyeing behavior and kinetics of the membrane-impermeable fluorescent quenching dye and the membrane-permeable fluorescent dye of Example 1 when mixed together, an additional experiment was performed on day 7 of culture as follows.
On day 7, 20 μL of the membrane-permeable fluorescent dye was added at 6× concentration to each well. The cells were incubated with dye at 37° C. for 1 hour. Confocal fluorescent microscopy was performed after incubation. About 20 μL of the membrane-impermeable fluorescent quenching dye was added directly to the same well on the stage at 6× concentration without disturbing the cells.
Dynamic confocal fluorescent microscopy images were taken of the cells immediately after addition of the membrane-impermeable fluorescent quenching dye (FIG. 2A, 2B), as well as at 5 min (FIG. 2C, 2D), 20 min (FIG. 2E, 2F), 30 min (FIG. 2G, 2H) and 45 min (FIG. 2I, 2J) after addition.

[3] = FIG. 1D: quenching dye 30 min, then membrane-permeable dye and masking reagent, additional 1 h
[4] = FIG. 1G: membrane-permeable dye and masking reagent 1 h, then quenching dye, additional 30 min
[5] = FIG. 1C: quenching dye 30 min, then membrane-permeable dye, additional 1 h
[6] = FIG. 1F: membrane-permeable dye 1 h, then quenching dye, additional 30 min

| Compound | signal observed by confocal fluorescent microscopy ([1]; FIG. 1A: quenching dye 30 min, then masking agent, additional 1 h) | signal observed by confocal fluorescent microscopy [1, 3] | signal observed by confocal fluorescent microscopy [1, 4] | change of fluorescence intensity over time [2] | dyeing of the nonviable cells [2] | time after addition of the dye at which the brightest images (fluorescence intensity) were acquired ([2]; day 7, FIG. 2I, 2J) | time after addition at which green cells becoming red is visually noticeable ([2]; day 7, membrane-permeable dye 1 hour at 37° C., then quenching dye added) | signal observed by confocal fluorescent microscopy ([1]; FIG. 1B: membrane-impermeable fluorescent quenching dye alone, 30 min, 37° C., day 3) | signal observed by confocal fluorescent microscopy [1, 5] | signal observed by confocal fluorescent microscopy [1, 6] | signal observed by confocal fluorescent microscopy ([1]; FIG. 1E: membrane-permeable fluorescent dye alone, 1 h, 37° C.) | cells dyed by the dye alone ([1]; dye alone) |
| --- | --- | --- | --- | --- | --- | --- | --- | --- | --- | --- | --- | --- |
| CC(=O)Nc1ccc(/N=N/c2c(N)ccc3cc(S(=O)(=O)O)cc(O)c23)c(S(=O)(=O)O)c1.N.N [masking agent, Diammonium 5-[(E)-(4-acetamido-2-sulfonatophenyl)diazenyl]-6-amino-4-hydroxy-2-naphthalenesulfonate] | no signal was observed | No red signal was observed | No red signal was observed |  |  |  |  |  |  |  |  |  |
| DRAQ7™ |  |  |  | increase over time | positive | 45 min | 20 to 30 min | discrete red signals were observed | discrete red signals were observed | discrete red signals were observed |  |  |
| CYQUANT® GR [membrane-permeable fluorescent dye] |  | discrete green signals were observed | discrete green signals were observed | significant decrease over time | negligible |  |  |  | discrete green signals | discrete green signals | discrete green signals were observed | dyed both viable and nonviable cells |
